Measured values as given in PMC4610730 (Journal of medicinal chemistry, 2015).

Columns and labels:
APOBEC3G (A3G) = APOBEC3G (A3G) (Homo sapiens, UniProt Q9HC16); test: Fluorescence-based ssDNA C-to-U DNA deaminase assay, A3G; format: biochemical; conditions: for A3G inhibitory activity: substructures of the decomposition products, data not shown
[1] = Aging of DMSO stocks of 1 under varied conditions; format: physicochemical
[2] = LC-MS analysis of aged DMSO stocks; format: physicochemical; conditions: DMSO stock, LC-MS on day 38; for Decomposition product observed: carboxylic acid (analogous to 6) / Decomposition product observed: enone (analogous to 8) / Decomposition product observed: lactam (analogous to 5): Table 1; for Decomposition product observed: bis-enone (equivalent to 8) / Decomposition product observed: carboxylic acid (equivalent to 6) / Decomposition product observed: lactam (equivalent to 5): Table 2
APOBEC3A (A3A) = APOBEC3A (A3A) (Homo sapiens, UniProt P31941); test: Fluorescence-based ssDNA C-to-U DNA deaminase assay, A3A; format: biochemical
[3] = Aging of 1 under photochemical conditions; format: physicochemical; conditions: 10 mM DMSO, visible light 300 W, N2 atmosphere (balloon, 1 atm), 9 h, no sensitizer
[4] = Storage stability of isolated decomposition products; format: physicochemical; conditions: significant periods of time
[5] = freshly synthesized and solubilized, day 0, dose response up to 200 μM

Sequence of APOBEC3G (A3G) (Q9HC16 whole entry): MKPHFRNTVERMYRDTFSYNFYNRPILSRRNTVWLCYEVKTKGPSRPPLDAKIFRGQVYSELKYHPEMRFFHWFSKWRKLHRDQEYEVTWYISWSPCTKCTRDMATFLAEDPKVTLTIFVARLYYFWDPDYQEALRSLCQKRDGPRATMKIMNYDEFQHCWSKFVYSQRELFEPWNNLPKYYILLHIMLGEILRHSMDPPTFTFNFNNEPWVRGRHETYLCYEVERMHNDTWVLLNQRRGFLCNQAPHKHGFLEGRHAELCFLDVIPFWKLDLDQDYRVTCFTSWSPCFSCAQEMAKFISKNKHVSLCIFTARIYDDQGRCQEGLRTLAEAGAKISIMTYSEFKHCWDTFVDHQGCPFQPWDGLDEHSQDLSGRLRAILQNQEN
Sequence of APOBEC3A (A3A) (P31941 whole entry): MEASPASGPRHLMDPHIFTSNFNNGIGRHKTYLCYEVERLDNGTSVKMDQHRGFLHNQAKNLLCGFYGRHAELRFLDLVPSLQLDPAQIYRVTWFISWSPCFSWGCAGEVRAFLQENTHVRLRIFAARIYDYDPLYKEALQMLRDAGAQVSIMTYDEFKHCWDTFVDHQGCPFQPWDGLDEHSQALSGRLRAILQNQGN

Row | SMILES | Decomposition product observed: carboxylic acid (analogous to 6) [2] | Decomposition product observed: enone (analogous to 8) [2] | Decomposition product observed: lactam (analogous to 5) [2] | Decomposition product observed: bis-enone (equivalent to 8) [2] | Decomposition product observed: carboxylic acid (equivalent to 6) [2] | Decomposition product observed: lactam (equivalent to 5) [2] | also measured
1 | O=C(O)c1cc(O)nc2ccccc12 [2-Hydroxyquinonline-4-carboxylic acid] |  |  |  |  |  |  | A3G inhibitory activity (APOBEC3G (A3G)): inactive
2 | Nc1nnc(-c2ccncc2)s1 [compound 4, 5-(pyridin-4-yl)-1,3,4-thiadiazol-2-amine] |  |  |  |  |  |  | A3G inhibitory activity (APOBEC3G (A3G)): inactive
3 | CC(=O)/C=C\C(=O)c1cc(C(=O)Nc2nnc(-c3ccncc3)s2)c2ccccc2n1 [compound 8, (Z)-2-(4-oxopent-2-enoyl)-N-(5-(pyridin-4-yl)-1,3,4-thiadiazol-2-yl)quinoline-4-carboxamide] |  |  |  |  |  |  | stability for storage in organic solvents [4]: not stable
4 | Cc1ccc(-c2cc(C(=O)O)c3ccccc3n2)o1 [compound 12, 2-(5-Methylfuran-2-yl)quinoline-4-carboxylic acid] | + 218.1 (218.1) | + 270.1 (270.1) | + 190.1 (190.1) |  |  |  | 
5 | O=C(Nc1nnc(-c2ccncc2)s1)c1cc(-c2ccco2)nc2ccccc12 [compound 13] | + 378.2 (378.1) | - | + 350.2 (350.1) |  |  |  | 
6 | Cc1ccc(-c2cc(C(=O)O)ccn2)o1 [compound 16] | - | + 220.1 (220.1) | - |  |  |  | 
7 | O=C(O)c1ccnc(-c2ccco2)c1 [compound 18] | - | - | - |  |  |  | 
8 | Cc1ccc(-c2cc(C(=O)Nc3nnc(-c4ccncc4)s3)c3ccccc3c2)o1 [compound 19] | + 377.2 (377.1) | + 429.2 (429.1) | - |  |  |  | 
9 | Cc1ccc(-c2cc(C(=O)O)c3ccccc3c2)o1 [compound 20] | - | + 269.2 (269.1) | - |  |  |  | 
10 | O=C(Nc1nnc(-c2ccncc2)s1)c1cc(-c2ccco2)cc2ccccc12 [compound 21] | + 377.2 (377.1) | + 415.1 (415.1) | - |  |  |  | 
11 | O=C(O)c1cc(-c2ccco2)cc2ccccc12 [compound 22] | - | + 254.1 (254.1) | - |  |  |  | 
12 | c1coc(-c2ccc3ccccc3n2)c1 [compound 24] | - | - | - |  |  |  | 
13 | Cc1ccc(-c2cc(C(=O)NC(C)C3CCCO3)c3ccccc3n2)o1 (stereo not drawn) [compound 25] |  |  |  | + 367.2 (367.2) | + 315.1 (315.1) | + 287.1 (287.1) | 
14 | Cc1cccc(NC(=O)c2cc(-c3ccc(C)o3)nc3ccccc23)n1 [compound 26] |  |  |  | + 360.2 (360.1) | + 308.1 (308.1) | + 280.1 (280.1) | 
15 | COc1ccc(CCNC(=O)c2cc(-c3ccc(C)o3)nc3ccccc23)cc1 [compound 28] |  |  |  | + 403.2 (403.2) | + 351.2 (351.1) | + 323.1 (323.1) | 
16 | Cc1ccc(-c2cc(C(=O)NCc3ccc4c(c3)OCO4)c3ccccc3n2)o1 [compound 29] |  |  |  | + 403.1 (403.1) | + 351.2 (351.1) | + 323.1 (323.1) | 
17 | Cc1ccc(-c2cc(C(=O)N3CCN(S(C)(=O)=O)CC3)c3ccccc3n2)o1 [compound 31] |  |  |  | + 416.1 (416.1) | + 364.1 (364.1) | + 336.1 (336.1) | 
18 | COC(=O)c1cc(NC(=O)c2cc(-c3ccc(C)o3)nc3ccccc23)cc(C(=O)OC)c1 [compound 32] |  |  |  | + 461.1 (461.1) | + 409.1 (409.1) | + 381.1 (381.1) | 
19 | O=C(O)c1cc(C(=O)O)c2ccccc2n1 [quinoline-2,4-carboxylic acid] |  |  |  |  |  |  | A3G inhibitory activity (APOBEC3G (A3G)): inactive

Now from value to compound, other results behind:

Row | Decomposition product observed: carboxylic acid (analogous to 6) [2] | Decomposition product observed: enone (analogous to 8) [2] | Decomposition product observed: lactam (analogous to 5) [2] | Decomposition product observed: bis-enone (equivalent to 8) [2] | Decomposition product observed: carboxylic acid (equivalent to 6) [2] | Decomposition product observed: lactam (equivalent to 5) [2] | SMILES | also measured
20 | + 378.1 (378.1) | + 430.1 (430.1) | + 350.1 (350.1) | + 430.1 (430.1) | + 378.1 (378.1) | + 350.1 (350.1) | Cc1ccc(-c2cc(C(=O)Nc3nnc(-c4ccncc4)s3)c3ccccc3n2)o1 [compound 1, 2-(5-Methylfuran-2-yl)-N-(5-(pyridin-4-yl)-1,3,4-thiadiazol-2-yl)quinoline-4-carboxamide] | A3G inhibition (APOBEC3G (A3G); [5]): no inhibition; decomposition of DMSO stock ([1]; 10 mM DMSO stock aged in the dark): no decomposition; decomposition of DMSO stock ([1]; 10 mM DMSO stock aged in the presence of NaN3): no decomposition; decomposition of DMSO stock ([1]; 10 mM DMSO stock aged under inert conditions (N2)): drastically reduced decomposition; rate of decomposition versus storage temperature ([1]; DMSO stock stored at -20 °C vs. rt vs. 37 °C, data not shown): same rate regardless of the temperature; inhibitory activity against A3A (APOBEC3A (A3A); aged DMSO stock of synthesized compound): never recovered; A3A inhibition (APOBEC3A (A3A); [5]): no inhibition; decomposition under irradiation [3]: virtually no decomposition
21 | - | - | + 190.2 (190.1) |  |  |  | O=C(O)c1cc(-c2ccco2)nc2ccccc12 [compound 14] | 
22 | + 328.2 (328.0) | + 380.2 (380.1) | - |  |  |  | Cc1ccc(-c2cc(C(=O)Nc3nnc(-c4ccncc4)s3)ccn2)o1 [compound 15] | 
23 | - | - | - |  |  |  | O=C(Nc1nnc(-c2ccncc2)s1)c1ccnc(-c2ccco2)c1 [compound 17] | 
24 | - | + 226.2 (226.2) | - |  |  |  | Cc1ccc(-c2ccc3ccccc3n2)o1 [compound 23] | 
25 |  |  |  | + 351.2 (351.2) | + 299.1 (299.1) | + 271.1 (271.1) | Cc1ccc(-c2cc(C(=O)NC3CCCCC3)c3ccccc3n2)o1 [compound 27] | 
26 |  |  |  | - | + 357.1 (357.1) | + 329.1 (329.1) | O=C(NNC(=O)c1cc(-c2ccco2)nc2ccccc12)NC1CCCCC1 [compound 30] | 
